Measured values reported in publication PMC8748766, “The catalytic activity of TCPTP is auto-regulated by its intrinsically disordered tail and activated by Integrin alpha-1” (Nature Communications, 2022).

Key:
Type in all cases: biochemical
[1] = molecular target: T1, TCPTP (Homo sapiens, UniProt P17706); experiment: Kinetics of TCPTP with saturating ITGA1 peptide, pEGFR peptide-1 substrate; conditions: TCPTP saturated with ITGA1 peptide (ITGA1_TR 1 μM; ITGA1_FCT 25 μM), mean ± SE, n = 9
T1 construct: fragments of TCPTP (residues: 1–387); His6 (N, cleaved yes); made in house; host or cells: E. coli BL21 (DE3) RIL
T1 sequence (P17706 1-387 isoform P17706-2): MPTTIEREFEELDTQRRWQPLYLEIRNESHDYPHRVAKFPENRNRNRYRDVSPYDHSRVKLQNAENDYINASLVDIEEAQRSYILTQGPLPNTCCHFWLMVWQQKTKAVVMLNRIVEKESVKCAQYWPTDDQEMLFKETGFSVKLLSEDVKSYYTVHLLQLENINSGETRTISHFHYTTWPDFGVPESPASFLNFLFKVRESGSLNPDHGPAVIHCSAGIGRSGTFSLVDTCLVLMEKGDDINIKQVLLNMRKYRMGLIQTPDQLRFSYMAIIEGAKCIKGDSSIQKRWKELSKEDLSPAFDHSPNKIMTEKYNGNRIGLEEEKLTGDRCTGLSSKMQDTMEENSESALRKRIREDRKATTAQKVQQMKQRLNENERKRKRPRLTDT
Text: (§1) Polymerase chain reaction (PCR) fragments of TCPTP (residues: 1–387) TCPTPCAT (catalytic domain, residues: 1–288, 1–302 or 1–314), TCPTPTail (C-terminal tail, residues: 289–387 or 303–387) were amplified from full-length human TCPTP (TC45 isoform). TCPTP, TCPTPCAT (residues: 1–288, 1–314), and TCPTPTail (residues: 289–387) fragments were cloned into pMCSG7 including a N-terminal His6-tag using ligation-independent cloning. For all NMR experiments, the PCR fragments of TCPTP, TCPTPCAT (residues: 1–302) and TCPTPTail (residue: 303–387) were sub-cloned into pRP1B as previously described.
(§2) The rate of dephosphorylation of TCPTP and TCPTPCAT (residue 1–314) against 2 phosphotyrosine peptides derived from EGFR was monitored either with or without ITGA1 peptide (ITGA1_FCT & ITGA1_TR) in assay buffer (25 mM Hepes pH 7.4, 50 mM NaCl and 1 mM DTT). Lyophilized powder of all synthetic peptides was dissolved in assay buffer without DTT (phosphopeptides, 5 mM; ITGA1 peptides, 2 mM). For the kinetic analysis, the concentration of the enzyme was fixed at 1 nM while the substrate (phosphopeptides) concentration was varied from 2.5 μM to 160 μM in a total reaction volume of 200 μl. Effect of ITGA1 peptide on TCPTP & TCPTPCAT kinetics were assessed in saturated condition by adding an excess amount of ITGA1 peptide to the reaction mixture (ITGA1_TR = 1 μM; ITGA1_FCT = 25 μM). The reaction was incubated at 30 °C for 30 min and stopped by the addition of 30 μl phosphate reagent (phosphate colorimetric assay kit; Bio Vision) following the manufacturer’s instructions. Data were normalized and fitted using a nonlinear curve, and kinetics parameters (KM and kcat) were calculated from the Michaelis-Menten equation using Graph Pad Prism 9.0. All data points in the enzyme kinetics experiment were measured in triplicate, and the experiments were repeated three times.

[2] = molecular target: T2, TCPTPCAT (Homo sapiens, UniProt P17706); experiment: Kinetics of TCPTPCAT with saturating ITGA1 peptide, pEGFR peptide-1 substrate; conditions: TCPTPCAT saturated with ITGA1 peptide (ITGA1_TR 1 μM), mean ± SE, n = 9
T2 construct: TCPTP and TCPTPCAT (residue 1–314) against 2 phosphotyrosine peptides derived from EGFR; His6 (N, cleaved yes); made in house; host or cells: E. coli BL21 (DE3) RIL
T2 sequence (P17706 1-314 isoform P17706-2): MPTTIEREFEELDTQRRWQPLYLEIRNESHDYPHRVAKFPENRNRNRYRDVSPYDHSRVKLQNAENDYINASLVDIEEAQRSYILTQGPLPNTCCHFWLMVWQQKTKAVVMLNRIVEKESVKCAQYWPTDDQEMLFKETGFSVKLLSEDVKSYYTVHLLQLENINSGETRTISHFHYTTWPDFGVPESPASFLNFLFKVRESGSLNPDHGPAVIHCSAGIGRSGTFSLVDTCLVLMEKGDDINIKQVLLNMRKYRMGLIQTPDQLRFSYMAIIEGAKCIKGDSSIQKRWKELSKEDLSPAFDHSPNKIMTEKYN
Text: as §1, §2

[3] = molecular target: T1, TCPTP; experiment: Kinetics of TCPTP with saturating ITGA1 peptide, pEGFR peptide-2 substrate; conditions: TCPTP saturated with ITGA1 peptide (ITGA1_TR 1 μM; ITGA1_FCT 25 μM), mean ± SE, n = 9
Text: as §1, §2

[4] = molecular target: T2, TCPTPCAT; experiment: Kinetics of TCPTPCAT with saturating ITGA1 peptide, pEGFR peptide-2 substrate; conditions: TCPTPCAT saturated with ITGA1 peptide (ITGA1_TR 1 μM), mean ± SE, n = 9
Text: as §1, §2

[5] = molecular target: T1, TCPTP; experiment: EC50 assay: TCPTP activation by ITGA1 peptides (pEGFR peptide-1 dephosphorylation); conditions: 1 nM TCPTP, 50 μM pEGFR peptide-1, pH 7.4, 30 °C 30 min, n = 3
Text: as §1
To determine the EC50, synthesized ITGA1 peptides (ITGA1_FCT, ITGA1_TCT and ITGA1_TR) were mixed with TCPTP, and phosphatase activity was measured using the phospho-EGFR peptides (pEGFR peptide-1) as substrate. Lyophilized powder of all peptides was dissolved in 25 mM Hepes pH 7.4, 50 mM NaCl. For the assay, the TCPTP concentration was fixed at 1 nM and substrate phospho-peptide at 50 μM. […] The absorbance of the reaction mixture was measured at 650 nm, which was converted to the amount of phosphate produced in reaction based on the standard curve generated from the known phosphate concentration. Data obtained from the reaction was fitted using nonlinear regression mode and EC50 values were calculated based on the equation function “Log(agonist) vs. response-variable slope” using Graph Pad Prism 9.0.

[6] = pEGFR peptide-1, 1 nM enzyme, pH 7.4, 30 °C 30 min
[7] = pEGFR peptide-2, pH 7.4, 30 °C 30 min

RPLKKKMEKRPLKKKMEK [ITGA1_TR, ITGA1 tandem repeat (2x ITGA1_TCT): …]
kcat [1, 6]: 26.2 ± 0.6 s⁻¹
Km ([1]; pEGFR peptide-1, pH 7.4, 30 °C): 15.9 ± 1.3 µM
kcat/Km ([1]; pEGFR peptide-1): 1.6e+06 ± 100000 M⁻¹ s⁻¹
kcat [2, 6]: 31.1 ± 0.7 s⁻¹
Km ([2]; pEGFR peptide-1, pH 7.4, 30 °C): 23 ± 1.6 µM
kcat/Km ([2]; pEGFR peptide-1): 1.3e+06 ± 100000 M⁻¹ s⁻¹
kcat [3, 7]: 34.7 ± 2.3 s⁻¹
Km ([3]; pEGFR peptide-2): 40.9 ± 6.8 µM
kcat/Km ([3]; pEGFR peptide-2): 0.8 ± 0.1 µM -1s-1
kcat [4, 7]: 35.6 ± 0.6 s⁻¹
Km ([4]; pEGFR peptide-2): 28.3 ± 1.3 µM
kcat/Km ([4]; pEGFR peptide-2): 1.2 ± 0.1 µM -1s-1
activation in EC50 assays (rank) [5]: strongest activation
